In patent publication US20240043420A1, “7-AZAINDOLE COMPOUNDS FOR INHIBITION OF BCR-ABL TYROSINE KINASES” (EnLiven Therapeutics, Inc., priority 2020, published 2024):

How the values were obtained:
ABL1 (T315I) = ABL1 (T315I) (Homo sapiens, UniProt P00519, T315I); experiment: Luminescence-based ABL kinase assay (ADP-Glo, 300 μM ATP), T315I mutant; type: biochemical
Method in brief: (§1)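 Buffer: 50 mM HEPES pH 7.5, 10 mM MgCl2, 1 mM EGTA, 2 mM DTT, 0.05% BSA. Compound preincubated 30 min at RT with kinase (3.325 nM in enzyme solution), then started with a Peptide 2 (6 μM) and ATP (1.2 mM) solution, both stock levels; 90 min at RT.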

ABL1 = target: T1, ABL1 (Homo sapiens, UniProt P00519); experiment: Luminescence-based ABL kinase assay (ADP-Glo, 300 μM ATP); type: biochemical
T1 construct: purchased Carna Biosciences
Method in brief: as §1

pCRKL in K562 cells = experiment: pCRKL ELISA assay in K562 cells; type: cell-based; details: Homo sapiens, 1.5 h, 90 minutes incubation, read-out: PCRKL ELISA, Cell Line IC50 (nM) K562
Procedure: (§2) K562 or Ba/F3 ABL T315I cells (2.0*10^5 cells/100 μl/well) were seeded in 96 well (Corning, cat #3799). Compounds were dissolved in DMSO, serially diluted in DMSO and then were added, mixed, and incubated for 90 minutes at 37° C., 5% CO2. Following the 90-minute incubation, plates were centrifuged for 5 min at 3000 RPM and supernatant was removed from each well. Cells were washed 3 times with 150 μl PBS prior to addition of 100 μl cell RIPA lysis buffer (Boston BioProducts, cat #BP-115D) supplied with 1×complete ULTRA cocktail inhibitor (Roche, 05892791001) and 1×PhosSTOP Phosphatase Inhibitor Cocktail Tablets (Roche, 04906837001). Cells were incubated with lysis buffer for 1 hour at 4° C. prior to storage at −80 C.
(§3) A capture antibody able to detect phosphorylated and non-phosphorylated CRKL (R&D Systems, cat #AF5127) was added to Meso Scale Discovery (MSD) standard bind plates (MSD, cat #L15XA-3) at 5 ug/mL and incubated at 4° C. overnight. The next day, plates were washed with PBS+0.05% Tween20 (PBST) and 150 μl of 5% BSA blocking solution was added for 1 hour at room temperature with shaking. Plates were washed with PBST. Lysates were thawed and 30 μl of lysate was added to the MSD plates and incubated for 2 hours at room temperature with shaking. MSD plates were washed with PBST and 30 μl of a detection antibody that binds phosphorylated pCRKL (R&D Systems, cat #MAB6910) was added at 1 μg/mL to each well. Plates were incubated for 1 hour at room temperature with shaking. Plates were washed with PBST prior to addition of 30 μl of a sulfo tagged goat anti mouse detection antibody (MSD cat #R32AC-1). Plates were incubated for 1 hour at room temperature with shaking. Plates were washed with PBST prior to addition of 150 ul of 1×MSD read buffer T (MSD, cat 4R92TC-2). Electrochemiluminescence (ECLU) was read on an MSD plate reader (Meso Scale Discovery). The remaining activity by calculated as follows: 00 Relative activity=100×(ELCUsample−ECLULC)/(ECLUHC−ECLULC). The low and high controls (LC/HC) are generated from lysate from wells without cells or with cells treated with 0.1% DMSO, respectively. IC50 values were calculated using XLFit software using a nonlinear regression model with a sigmoidal dose response and are shown in Table 4 and Table 5 below.

[1] = system: pCRKL in Ba/F3 ABL1 (T315I) cells; experiment: pCRKL ELISA assay in Ba/F3 ABL T315I cells; type: cell-based; details: Mus musculus, BaF3, 1.5 h, 90 minutes incubation, read-out: pCRKL ELISA, Cell Line IC50 (nM) Ba/F3 ABL1 (T315I)
Procedure: as §2, §3

HL60 cells = experiment: HL60 cell proliferation assay (CellTiter-Glo); type: cell-based; details: Homo sapiens, HL-60, 72 h, CellTiter-Glo viability, read-out: Cell Line (IC50, nM) HL60
Method in brief: (§4)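 Cells in IMDM/10% FBS seeded at 2,000 (K562) or 1,500 (HL60) per well, exposed to serially diluted compounds for 72 h at 37 °C, 5% CO2. Viability by CellTiter-Glo luminescence, normalized between DMSO (high) and cell-free media (low) controls.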

K562 cells = experiment: K562 cell proliferation assay (CellTiter-Glo); type: cell-based; details: Homo sapiens, K562, 72 h, CellTiter-Glo viability, read-out: Cell Line (IC50, nM) K562
Method in brief: as §4

Row | SMILES | IC50 (ABL1 (T315I)) | IC50 (ABL1) | IC50 (pCRKL in K562 cells) | IC50 [1] | IC50 (HL60 cells) | IC50 (K562 cells)
1 | COc1c(-c2c[nH]c3nc(NC(=O)[C@@H]4C[C@@H]4F)ccc23)cc(F)c2[nH]cnc12 [Compound 95, (1S,2S)-2-fluoro-N-(3-(7-fluoro-4-methoxy-1H-benzo[d]imidazol-5-yl)-1H-pyrrolo[2,3-b]pyridin-6-yl)cyclopropanecarboxamide] | 2.14 nM | 6.32 nM | 656 nM | 429 nM | > 10000 nM | 221 nM
2 | COc1ncccc1-c1c[nH]c2nc(NC(=O)[C@@H]3C[C@@H]3F)ccc12 [Compound 27, (1S,2S)-2-fluoro-N-(3-(2-methoxypyridin-3-yl)-1H-pyrrolo[2,3-b]pyridin-6-yl)cyclopropane-1-carboxamide] | 20.2 nM | 29 nM | 164 nM | 183 nM | > 10000 nM | 156 nM
3 | COc1cc2ncsc2c(F)c1-c1c[nH]c2nc(NC(=O)[C@@H]3C[C@@H]3F)ccc12 [Compound 147, (1S,2S)-2-fluoro-N-(3-(7-fluoro-5-methoxybenzo[d]thiazol-6-yl)-1H-pyrrolo[2,3-b]pyridin-6-yl)cyclopropane-1-carboxamide] | 1.71 nM | 5.54 nM | 35.7 nM | 35.7 nM | > 10000 nM | 16.1 nM
4 | COc1ccnc(OC)c1-c1c[nH]c2nc(NC(=O)[C@@H]3C[C@@H]3F)ccc12 [Compound 75, (1S,2S)—N-[3-(2,4-dimethoxypyridin-3-yl)-1H-pyrrolo[2,3-b]pyridin-6-yl]-2-fluorocyclopropane-1-carboxamide] | 17.6 nM | 15.1 nM | 86.3 nM | 162 nM | > 10000 nM | 54.6 nM
5 | COc1nc2ncsc2cc1-c1c[nH]c2nc(NC(=O)[C@@H]3C[C@@H]3F)ccc12 [Compound 146, (1S,2S)-2-fluoro-N-(3-[5-methoxy-[1,3]thiazolo[4,5-b]pyridin-6-yl]-1H-pyrrolo[2,3-b]pyridin-6-yl)cyclopropane-1-carboxamide] | 14 nM | 3.74 nM | 32 nM | 112 nM | > 10000 nM | 9.9 nM
6 | COc1ncc(F)c(OC)c1-c1c[nH]c2nc(NC(=O)[C@@H]3C[C@@H]3F)ccc12 [Compound 76, (1S,2S)-2-fluoro-N-[3-(5-fluoro-2,4-dimethoxypyridin-3-yl)-1H-pyrrolo[2,3-b]pyridin-6-yl]cyclopropane-1-carboxamide] | 7.38 nM | 5.14 nM | 65.4 nM | 50.1 nM | > 10000 nM | 35.8 nM
7 | COc1ccccc1-c1n[nH]c2nc(NC(=O)[C@@H]3C[C@@H]3F)ccc12 [Compound 54, (1S,2S)-2-fluoro-N-[3-(2-methoxyphenyl)-1H-pyrazolo[3,4-b]pyridin-6-yl]cyclopropane-1-carboxamide] | 16.3 nM | 14.3 nM | 95.8 nM | 198 nM | > 10000 nM | 88.4 nM
8 | COc1ccc(F)cc1-c1n[nH]c2nc(NC(=O)[C@@H]3C[C@@H]3F)ccc12 [Compound 98, (1S,2S)-2-fluoro-N-[3-(5-fluoro-2-methoxyphenyl)-1H-pyrazolo[3,4-b]pyridin-6-yl]cyclopropane-1-carboxamide] | 12.9 nM | 16.4 nM | 174 nM | 241 nM | > 10000 nM | 106 nM
9 | COc1cccc(OC)c1-c1c[nH]c2nc(NC(=O)C3CC3CN3CCNCC3)ccc12 (single isomer, unassigned) [Example S150, Enantiomer 1, N-[3-(2,6-dimethoxyphenyl)-1H-pyrrolo[2,3-b]pyridin-6-yl]-2-(piperazin-1-ylmethyl)cyclopropane-1-carboxamide] | 1.73 nM | 5.42 nM | 453 nM | 1460 nM |  | 40.5 nM
